In article PMC12074596, “The histone deacetylase inhibitor CT-101 flips the switch to fetal hemoglobin expression in sickle cell disease mice” (PLOS One, 2025):

Key:
HbF [1] = assay: Flow cytometry of F-cells and MFI in peripheral blood of β-YAC mice; format: in vivo, β-YAC transgenic mice; settings: Study 1; HU 100 mg/kg; week 4; p < 0.001
Experimental: (§2) Each treatment group consisted of six mice per group (3 males and 3 females), and data was combined for 2 replicates for statistical analysis (n = 12). We collected tail vein blood at weeks 0, 2, and 4 and analyzed complete blood counts and differentials using an automated Micros 60 device (HORIBA Medical/ABX Diagnostics, Irvine, CA). The level of F-cells and mean fluorescence intensity (MFI) was determined by flow cytometry as previously published [28].
Flow cytometry was conducted on the FACSCanto machine (BD Biosciences, San Jose, CA) using gating parameters previously published by our group [28]. Briefly, the forward scatter and side scatter were set to gate erythroid cells, then during FLOWJO analysis, ‘log F-cell’‘ histograms (X-axis) generated to measure the percentage of HbF positive cells (F-cells) from total erythroid cells (Y-axis) after gating on the negative isotype control cells. The mean fluorescence intensity (MFI) to quantify the level of HbF protein per cell was generated by FLOWJO software.

Townes SCD mice [2] = assay: Survival, weight and behavior of SCD mice (Study 3); format: in vivo, mouse; settings: both replicates combined
Experimental: The study design was the same as in Studies 1 and 2, using SCD mice (4–6 months old) dosed once daily by IP injections, with water, HU (100 mg/kg), vehicle (FORM 3), CT-101 in FORM-3 (10 mg/kg), and combined HU and CT-101 administration. The study period was 4 weeks, and two independent replicates were combined for statistical analysis (n = 8–12). Blood collected at weeks 0, 2, and 4 were analyzed for complete blood count and differential, and F-cells and MFI quantified by flow cytometry. Blood stained with acridine orange (BD retic-count reagent) quantified reticulocytes by flow cytometry [31].

histone H3 and H4 = assay: Western blot of histone acetylation in spleen of SCD mice; format: in vivo, Townes SCD mice; settings: end of treatment
Experimental: The total splenic cells were processed for histone acetylation levels by Western blot as previously published by our group.
Acidic histone extraction was performed according to standard protocols described previously by our group. […] Western blot quantitative data were collected by densitometry analysis using Image J software.

Townes SCD mice [3] = assay: Complete blood counts, differentials and reticulocytes in SCD mice (Study 3); format: in vivo, mouse; settings: HU 100 mg/kg; throughout the study; p < 0.01
Experimental: The study period was 4 weeks, and two independent replicates were combined for statistical analysis (n = 8–12). Blood collected at weeks 0, 2, and 4 were analyzed for complete blood count and differential, and F-cells and MFI quantified by flow cytometry. Blood stained with acridine orange (BD retic-count reagent) quantified reticulocytes by flow cytometry [31].

spleen = assay: Spleen size and hematoxylin and eosin histology in SCD mice; format: in vivo, Townes SCD mice
Experimental: (§1) At the end of the 4-week treatment period, approximately 700 μL of blood was collected from each mouse into K3-EDTA tubes (Becton Dickinson, Franklin Lakes, NJ; catalog #365974) by cardiac puncture for plasma isolation after euthanasia using carbon dioxide gas. Subsequently, spleens were harvested for tissue stains, immunohistology, and protein isolation. A part of the spleen was fixed with buffered formaldehyde, embedded in paraffin, and sectioned into ~[…] thick slices for staining with hematoxylin and eosin for histology of spleen structures using a Keyence microscope (Keyence Itasca, IL). The immuno-histology staining was performed on frozen spleen sections using sheep polyclonal antibody against HbF conjugated with FITC (Life Technologies Corporation; catalog #A80-136F) and counterstained with DAPI (4′,6-diamidino-2-phenylindole) to identify the cell nucleus. The spleen tissue was analyzed using the EVOS cell imaging system (ThermoFisher, Waltham, MA) under x40 magnifications. The FITC-positive cells were counted for 15 high-power fields per section, and the mean average of the fields was used for statistical analysis.

HbF [4] = assay: Immuno-histology of spleen with FITC anti-HbF antibody in SCD mice; format: in vivo, Townes SCD mice; settings: end of four-week treatment
Experimental: as §1

micronuclei = assay: Micronuclei assay in SCD mouse blood; format: in vivo, Townes SCD mice; settings: end of treatment; p < 0.05
Text: DNA was stained with propidium iodide/phycoerythrin for simultaneous measurement of cell viability, followed by FACSCAN flow cytometry analysis. Propidium iodide/phycoerythrin supplied in the MN analysis kit (Litron Laboratories, Rochester, NY; catalog #PLUS-M) was used as a positive control for CD71-FITC; the number of MN positive cells were counted in cell positive for CD71 and MN as previously published.

β-YAC transgenic mice = assay: Complete blood counts, differentials and reticulocytes in β-YAC mice (Studies 1 and 2); format: in vivo, mouse
Experimental: as §2

HbF expression = system: HbF expression; set-up: method as in PMID 26045597; settings: adults with SCD; cited from earlier work
[5] = Study 1, HU 100 mg/kg IP five days a week for four weeks

Structure (SMILES)	increase in F-cells (HbF [1]) [fold]	survival (Townes SCD mice [2]) [%]	change in total or acetylated histone H3 and H4 levels in spleen (histone H3 and H4)	decrease in platelet counts (Townes SCD mice [3]) [%]	decrease in overall spleen size (spleen; HU 100 mg/kg, four weeks, p < 0.01) [%]	spleen histology (hematoxylin and eosin) (spleen; end of four-week treatment)	increase in HbF-positive erythroid cells in spleen tissue (HbF [4]) [fold]	increased production of micronuclei (micronuclei) [fold]	change in reticulocyte counts (β-YAC transgenic mice; Study 1, HU 100 mg/kg)	decrease in hematocrit (β-YAC transgenic mice; [5]) [%]	decrease in hemoglobin (β-YAC transgenic mice; [5]) [%]	decrease in platelets (β-YAC transgenic mice; [5]) [%]	decrease in total white cell counts (β-YAC transgenic mice; [5]) [%]	change in mean corpuscular volume of RBCs (β-YAC transgenic mice; Study 1, HU 100 mg/kg, p < 0.001)	effect on total white blood counts and platelets (β-YAC transgenic mice; Study 2, HU 100 mg/kg alone or with CT-101 10 mg/kg)	HbF expression (HbF expression)
NC(=O)NO [HU, hydroxyurea]	5.4	83	not statistically significance differences	50	37	decrease in hemorrhagic infarcts and maturing extramedullary hematopoiesis	1.8	1.8	increase	12	12	30	24	increasing	decrease	–
O=C(CCCCCCC(=O)Nc1ccccc1)NO [Vorinostat]	–	–	–	–	–	–	–	–	–	–	–	–	–	–	–	did not induce HbF expression
